Results from patent publication US6737383B1, “Herbicidal oxadiazolidines” (priority 1999, dated 2004).

Legend:
cocklebur = assay: Test B pre/postemergence cocklebur; type: in vivo, Xanthium strumarium
Outline: (§1)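 Test chemicals in a non-phytotoxic solvent mixture with surfactant were sprayed preemergence onto planted seeds and postemergence onto plants 2 to 18 cm tall (1- to 4-leaf stage). After twelve to sixteen days in a greenhouse, injury was visually rated against untreated controls from 0 (no effect) to 10 (complete control).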

rape = assay: Test B pre/postemergence rape; type: in vivo, Brassica napus
Outline: as §1

blackgrass = assay: Test B pre/postemergence blackgrass; type: in vivo, Alopecurus myosuroides
Outline: as §1

crabgrass = assay: Test B pre/postemergence crabgrass; type: in vivo, Digitaria sanguinalis
Outline: as §1

giant foxtail = assay: Test B pre/postemergence giant foxtail; type: in vivo, Setaria faberii
Outline: as §1

wild oat = assay: Test B pre/postemergence wild oat; type: in vivo, Avena fatua
Outline: as §1

morningglory = assay: Test B pre/postemergence morningglory; type: in vivo, Ipomoea hederacea
Outline: as §1

surinam grass = assay: Test B pre/postemergence surinam grass; type: in vivo, Brachiaria decumbens
Outline: as §1

sugar beet = assay: Test B pre/postemergence sugar beet; type: in vivo, Beta vulgaris
Outline: as §1

purple nutsedge = assay: Test B pre/postemergence purple nutsedge; type: in vivo, Cyperus rotundus
Outline: as §1

pigweed = assay: Test B pre/postemergence pigweed; type: in vivo, Amaranthus retroflexus
Outline: as §1

corn = assay: Test B pre/postemergence corn; type: in vivo, Zea mays
Outline: as §1

soybean = assay: Test B pre/postemergence soybean; type: in vivo, Glycine max
Outline: as §1

velvetleaf = assay: Test B pre/postemergence velvetleaf; type: in vivo, Abutilon theophrasti
Outline: as §1

bedstraw = assay: Test B pre/postemergence bedstraw; type: in vivo, Galium aparine
Outline: as §1

wheat = assay: Test B pre/postemergence wheat; type: in vivo, Triticum aestivum
Outline: as §1

[1] = Postemergence, Rate 62 g/ha, scale of 0 to 10, 0 is no effect, 10 is complete control
[2] = Postemergence, Rate 500 g/ha, scale 0 to 10, 0 is no effect, 10 is complete control
[3] = Preemergence, Rate 125 g/ha, scale 0 to 10, 0 is no effect, 10 is complete control
[4] = Preemergence, Rate 500 g/ha, scale of 0 to 10 where 0 is no effect and 10 is complete control
[5] = Rate 250 g/ha, Postemergence, scale of 0 to 10 where 0 is no effect and 10 is complete control
[6] = Postemergence, Rate 125 g/ha, scale 0 to 10, 0 is no effect, 10 is complete control
[7] = Preemergence, Rate 62 g/ha, scale 0 to 10 (0 no effect, 10 complete control)

CCC(=O)Cn1c(=O)on(C(=O)N(c2ccc(Cl)cc2)C(C)C)c1=O [Compound 553]
0: Cocklebur plant response rating (cocklebur; [1]) | Cocklebur plant response rating (cocklebur; [3]) | Cocklebur plant response rating (0 to 10 scale) (cocklebur; Preemergence, Rate 250 g/ha) | Plant response rating, Cocklebur (cocklebur; [5]) | Rape plant response rating (rape; [7]) | Blackgrass plant response rating (blackgrass; [1]) | Blackgrass plant response rating (blackgrass; [6]) | Crabgrass plant response rating (crabgrass; [1]) | Giant foxtail plant response rating (giant foxtail; [1]) | Wild oats plant response rating (wild oat; [1]) | Wild oats plant response rating (wild oat; [7]) | Wild oats plant response rating (wild oat; [3]) | Morningglory plant response rating (morningglory; [1]) | Morningglory plant response rating (morningglory; [6]) | Plant response rating, Morningglory (morningglory; [2]) | Morningglory plant response rating (morningglory; [7]) | Morningglory plant response rating (morningglory; [3]) | Morningglory plant response rating (0 to 10 scale) (morningglory; Preemergence, Rate 250 g/ha) | Plant response rating, Morningglory (morningglory; [5]) | B. signalgrass plant response rating (surinam grass; [1]) | B. signalgrass plant response rating (surinam grass; [6]) | Sugarbeets plant response rating (sugar beet; [1]) | Sugarbeets plant response rating (sugar beet; [7]) | Plant response rating, Sugarbeets (sugar beet; [5]) | Nutsedge plant response rating (purple nutsedge; [1]) | Nutsedge plant response rating (purple nutsedge; [6]) | Nutsedge plant response rating (purple nutsedge; [7]) | Nutsedge plant response rating (purple nutsedge; [3]) | Nutsedge plant response rating (0 to 10 scale) (purple nutsedge; Preemergence, Rate 250 g/ha) | Nutsedge plant response rating (purple nutsedge; [4]) | Plant response rating, Nutsedge (purple nutsedge; [5]) | Redroot pigweed plant response rating (pigweed; [1]) | Plant response rating, Redroot pigweed (pigweed; [2]) | Redroot pigweed plant response rating (pigweed; [7]) | Plant response rating, Redroot pigweed (pigweed; [5]) | Corn plant response rating (corn; [1]) | Corn plant response rating (corn; [6]) | Plant response rating, Corn (corn; [2]) | Corn plant response rating (corn; [7]) | Corn plant response rating (corn; [3]) | Corn plant response rating (0 to 10 scale) (corn; Preemergence, Rate 250 g/ha) | Plant response rating, Corn (corn; [5]) | Soybean plant response rating (soybean; [7]) | Soybean plant response rating (soybean; [3]) | Soybean plant response rating (0 to 10 scale) (soybean; Preemergence, Rate 250 g/ha) | Velvetleaf plant response rating (velvetleaf; [7]) | Velvetleaf plant response rating (velvetleaf; [3]) | Velvetleaf plant response rating (0 to 10 scale) (velvetleaf; Preemergence, Rate 250 g/ha) | Bedstraw plant response rating (bedstraw; [1]) | Bedstraw plant response rating (bedstraw; [7]) | Bedstraw plant response rating (bedstraw; [3]) | Wheat plant response rating (wheat; [1]) | Wheat plant response rating (wheat; [3]) | Wheat plant response rating (0 to 10 scale) (wheat; Preemergence, Rate 250 g/ha) | Plant response rating, Wheat (wheat; [5])
6: Rape plant response rating (rape; [6]) | Plant response rating, Giant foxtail (giant foxtail; [5]) | B. signalgrass plant response rating (surinam grass; [7])
10: Cocklebur plant response rating (cocklebur; [4]) | Crabgrass plant response rating (crabgrass; [7]) | Crabgrass plant response rating (0 to 10 scale) (crabgrass; Preemergence, Rate 250 g/ha) | Crabgrass plant response rating (crabgrass; [4]) | Giant foxtail plant response rating (giant foxtail; [7]) | Giant foxtail plant response rating (giant foxtail; [3]) | Giant foxtail plant response rating (0 to 10 scale) (giant foxtail; Preemergence, Rate 250 g/ha) | Giant foxtail plant response rating (giant foxtail; [4]) | Bedstraw plant response rating (bedstraw; [4])
3: Rape plant response rating (rape; [3]) | Rape plant response rating (0 to 10 scale) (rape; Preemergence, Rate 250 g/ha) | Plant response rating, Blackgrass (blackgrass; [5]) | Crabgrass plant response rating (crabgrass; [6]) | Wild oats plant response rating (0 to 10 scale) (wild oat; Preemergence, Rate 250 g/ha) | Plant response rating, B. signalgrass (surinam grass; [5]) | Sugarbeets plant response rating (sugar beet; [3]) | Sugarbeets plant response rating (0 to 10 scale) (sugar beet; Preemergence, Rate 250 g/ha) | Corn plant response rating (corn; [4]) | Soybean plant response rating (soybean; [4]) | Plant response rating, Soybean (soybean; [5]) | Plant response rating, Wheat (wheat; [2])
8: Plant response rating, Crabgrass (crabgrass; [5]) | B. signalgrass plant response rating (surinam grass; [4])
9: Plant response rating, Crabgrass (crabgrass; [2]) | Crabgrass plant response rating (crabgrass; [3]) | B. signalgrass plant response rating (surinam grass; [3]) | B. signalgrass plant response rating (0 to 10 scale, 0 is no effect, 10 is complete control) (surinam grass; Preemergence, Rate 250 g/ha) | Redroot pigweed plant response rating (0 to 10 scale) (pigweed; Preemergence, Rate 250 g/ha)
1: Soybean plant response rating (soybean; [1])
5: Plant response rating, B. signalgrass (surinam grass; [2]) | Plant response rating, Velvetleaf (velvetleaf; [5])
2: Plant response rating, Cocklebur (cocklebur; [2]) | Rape plant response rating (rape; [1]) | Plant response rating, Wild oats (wild oat; [2]) | Plant response rating, Wild oats (wild oat; [5]) | Morningglory plant response rating (morningglory; [4]) | Plant response rating, Sugarbeets (sugar beet; [2]) | Velvetleaf plant response rating (velvetleaf; [4]) | Bedstraw plant response rating (bedstraw; [6]) | Bedstraw plant response rating (0 to 10 scale) (bedstraw; Preemergence, Rate 250 g/ha) | Plant response rating, Bedstraw (bedstraw; [5])
7: Plant response rating, Rape (rape; [5]) | Plant response rating, Blackgrass (blackgrass; [2]) | Blackgrass plant response rating (blackgrass; [7]) | Blackgrass plant response rating (blackgrass; [3]) | Blackgrass plant response rating (0 to 10 scale) (blackgrass; Preemergence, Rate 250 g/ha) | Giant foxtail plant response rating (giant foxtail; [6]) | Plant response rating, Giant foxtail (giant foxtail; [2]) | Redroot pigweed plant response rating (pigweed; [3]) | Plant response rating, Bedstraw (bedstraw; [2])
